Measurements from patent US9783527B2, “Indazole ureas and method of use” (AbbVie Inc., priority 2014, dated 2017).

Assays:
[1] = system: spinal nerve ligation-induced neuropathic pain in rats; assay: Rat spinal nerve ligation (SNL) model of neuropathic pain, von Frey paw withdrawal threshold; format: in vivo; settings: SNL dose 100 mg/kg; male Sprague Dawley rats, mechanical sensitivity (von Frey)
Source text: Rat Spinal Nerve Ligation (SNL) Model of Neuropathic Pain.
A model of spinal nerve ligation-induced (SNL model) neuropathic pain as originally described by Kim and Chung (Kim, S. H. and J. M. Chung, 1992, Pain 50, 355) was used to test a compound of the present application. The male Sprague Dawley rats (Charles River Laboratories, Wilmington, Mass.), weighing 150-175 g at the time of surgery, were placed under isoflurane anesthesia and a 1.5 cm incision was made dorsal to the lumbosacral plexus. The paraspinal muscles (left side) were separated from the spinous processes, the left L5 and L6 spinal nerves isolated, and tightly ligated with 5-0 silk suture distal to the dorsal root ganglion. Care was taken to avoid ligating the L4 spinal nerve. Following spinal nerve ligation, a minimum of 7 days of recovery and no more than 3 weeks was allowed prior to the behavioral testing (mechanical sensitivity). Only rats with threshold scores ≦4.5 g were considered allodynic and utilized in pharmacological experiments.
Mechanical sensitivity was measured using calibrated von Frey filaments (Stoelting, Wood Dale, Ill.). Paw withdrawal threshold (PWT) was determined by using the Dixon's up-down method (Dixon, W. J., 1980, Ann. Rev. Pharmacol. Toxicol., 20, 441). Rats were placed into inverted individual plastic containers (20×12.5×20 cm) on top of a suspended wire mesh with a 1 cm^2 grid to provide access to the ventral side of the hind paws, and acclimated to the test chambers for 20 minutes. The von Frey filaments were presented perpendicularly to the plantar surface of the selected hind paw, and then held in this position for approximately 8 seconds with enough force to cause a slight bend in the filament. Positive responses included an abrupt withdrawal of the hind paw from the stimulus, or flinching behavior immediately following removal of the stimulus. A 50% withdrawal threshold was determined using an up-down procedure (Dixon, 1980). A percent maximal possible effect (% MPE) of testing compound was calculated according to the formula: (Log [compound-treated threshold]−Log [vehicle-treated threshold])/(Log [maximum threshold]−Log [vehicle-treated threshold])×100%, where the maximum threshold was equal to 15 g.
The animals were housed in Association for Assessment and Accreditation of Laboratory Animal Care (AAALAC) approved facilities at AbbVie Inc. in a temperature-regulated environment under a controlled 12-hour light-dark cycle, with lights on at 6:00 a.m. Food and water were available ad libitum at all times except during testing. All testing was done following procedures outlined in protocols approved by AbbVie Inc.s' Institutional Animal Care and Use Committee.

human Nav1.7 = human Nav1.7 (Homo sapiens (Human), UniProt Q15858); assay: FRET-based membrane potential assay, recombinant human sodium channel Nav1.7; format: cell-based; settings: HEK293 cells stably expressing recombinant human Nav1.7; depolarization with veratridine (EC80) + scorpion venom
Chain of human Nav1.7 (Q15858 whole entry): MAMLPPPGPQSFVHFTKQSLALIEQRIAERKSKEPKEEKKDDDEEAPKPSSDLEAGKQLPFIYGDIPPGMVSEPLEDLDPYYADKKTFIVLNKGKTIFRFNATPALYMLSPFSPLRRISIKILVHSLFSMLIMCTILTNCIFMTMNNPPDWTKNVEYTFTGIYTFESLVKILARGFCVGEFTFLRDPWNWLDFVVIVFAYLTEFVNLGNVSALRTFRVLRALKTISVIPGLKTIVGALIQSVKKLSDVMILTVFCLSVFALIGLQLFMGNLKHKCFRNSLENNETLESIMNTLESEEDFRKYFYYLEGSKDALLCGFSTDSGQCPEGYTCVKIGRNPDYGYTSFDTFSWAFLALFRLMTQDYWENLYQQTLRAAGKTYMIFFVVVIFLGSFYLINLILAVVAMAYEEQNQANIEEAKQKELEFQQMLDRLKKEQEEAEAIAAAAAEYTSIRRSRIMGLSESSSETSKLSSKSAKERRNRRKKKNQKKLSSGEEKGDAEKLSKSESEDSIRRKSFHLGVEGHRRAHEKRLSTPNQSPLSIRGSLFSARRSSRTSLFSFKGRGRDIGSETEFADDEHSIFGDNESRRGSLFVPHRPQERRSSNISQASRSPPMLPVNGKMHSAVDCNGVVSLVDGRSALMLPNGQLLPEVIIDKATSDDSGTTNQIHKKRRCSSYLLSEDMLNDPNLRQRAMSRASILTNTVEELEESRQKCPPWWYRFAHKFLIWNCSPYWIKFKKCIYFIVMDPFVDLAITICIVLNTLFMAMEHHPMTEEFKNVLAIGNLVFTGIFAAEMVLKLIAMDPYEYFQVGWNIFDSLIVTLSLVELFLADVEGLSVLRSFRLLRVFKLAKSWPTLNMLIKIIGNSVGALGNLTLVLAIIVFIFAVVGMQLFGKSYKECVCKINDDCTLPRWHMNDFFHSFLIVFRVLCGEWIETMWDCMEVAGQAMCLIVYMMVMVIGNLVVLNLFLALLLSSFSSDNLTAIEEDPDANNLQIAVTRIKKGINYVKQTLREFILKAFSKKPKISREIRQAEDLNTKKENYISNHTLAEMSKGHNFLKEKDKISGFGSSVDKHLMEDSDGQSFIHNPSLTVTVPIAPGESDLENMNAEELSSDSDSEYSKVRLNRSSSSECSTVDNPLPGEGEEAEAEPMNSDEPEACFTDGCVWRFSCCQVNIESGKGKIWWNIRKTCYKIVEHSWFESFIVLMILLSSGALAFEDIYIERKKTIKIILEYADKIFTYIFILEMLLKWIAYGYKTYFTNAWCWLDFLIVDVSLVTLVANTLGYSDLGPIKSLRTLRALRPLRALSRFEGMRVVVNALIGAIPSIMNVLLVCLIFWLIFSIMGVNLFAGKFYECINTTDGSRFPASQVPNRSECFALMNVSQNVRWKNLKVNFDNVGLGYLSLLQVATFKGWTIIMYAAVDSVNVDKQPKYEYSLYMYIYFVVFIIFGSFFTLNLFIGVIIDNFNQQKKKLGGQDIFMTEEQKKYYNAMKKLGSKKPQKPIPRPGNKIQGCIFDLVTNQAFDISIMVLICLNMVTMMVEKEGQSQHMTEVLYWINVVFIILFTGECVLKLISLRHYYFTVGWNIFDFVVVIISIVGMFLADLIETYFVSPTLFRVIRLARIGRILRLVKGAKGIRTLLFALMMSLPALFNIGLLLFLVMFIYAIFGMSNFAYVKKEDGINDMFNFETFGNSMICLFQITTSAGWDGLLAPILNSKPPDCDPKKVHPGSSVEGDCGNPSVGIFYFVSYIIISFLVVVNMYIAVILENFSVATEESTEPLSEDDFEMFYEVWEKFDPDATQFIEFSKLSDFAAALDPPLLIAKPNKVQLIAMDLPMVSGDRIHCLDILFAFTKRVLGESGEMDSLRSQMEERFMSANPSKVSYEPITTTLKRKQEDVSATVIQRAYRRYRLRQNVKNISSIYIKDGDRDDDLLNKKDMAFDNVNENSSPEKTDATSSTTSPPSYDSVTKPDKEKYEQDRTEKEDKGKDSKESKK
Outline: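 IC50 derived by four-parameter Hill fit of percent inhibition of depolarization, measured as peak F440-480/F565-625 ratio over baseline. Stable human Nav1.7 HEK293 cells, dye-loaded with CC2-DMPE and DiSBAC2(3)/VABSC-1 at room temperature, received compound 3 min ahead of veratridine (EC80) plus scorpion venom.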

Row | Structure (SMILES) | SNL MPE (%) [1] | IC50 (human Nav1.7)
1 | Cc1noc(C(C)N2CCN(c3cccc4c3cnn4-c3ccccc3F)C2=O)n1 (racemic) [Example 46, 1-[1-(2-fluorophenyl)-1H-indazol-4-yl]-3-[1-(3-methyl-1,2,4-oxadiazol-5-yl)ethyl]imidazolidin-2-one] | 59% | 1870 nM
2 | C[C@H]1CCCN1C(=O)CN1CCN(c2cccc3c2cnn3-c2ccccc2F)C1=O [Example 15, 1-[1-(2-fluorophenyl)-1H-indazol-4-yl]-3-{2-[(2S)-2-methylpyrrolidin-1-yl]-2-oxoethyl}imidazolidin-2-one] | 74% | 625 nM
3 | O=C(CN1CCN(c2cccc3c2cnn3-c2ccccc2F)C1=O)N[C@@H]1CCOC1 [Example 55, 2-{3-[1-(2-fluorophenyl)-1H-indazol-4-yl]-2-oxoimidazolidin-1-yl}-N-[(3R)-tetrahydrofuran-3-yl]acetamide] | 91% | 2240 nM
4 | Cc1noc(C)c1CN1CCN(c2cccc3c2cnn3-c2ccccc2F)C1=O [Example 27, 1-[(3,5-dimethyl-1,2-oxazol-4-yl)methyl]-3-[1-(2-fluorophenyl)-1H-indazol-4-yl]imidazolidin-2-one] | 63% | 546 nM
